Laboratory results from ChEMBL document CHEMBL1201862, “PubChem BioAssay data set” (2004).
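Exposure lasted 48 hours, with cells grown in 96-well plates and compounds tested at five concentrations. GI50 marks 50% less growth.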 Calls of active or inactive are those of the source. Cut-off read from the data, not from the text of the source: active = GI50 up to about 1.1 µM and inactive = higher.

Experiments:
Test in all cases: NCI tumour cell line growth inhibition, 48 h
[1] = system: A549
[2] = system: SNB-75
[3] = system: UO-31
[4] = system: UACC-257
[5] = system: HOP-92
[6] = system: BT-549
[7] = system: OVCAR-4
[8] = system: COLO 205
[9] = system: ACHN
[10] = system: NCI-H226
[11] = system: IGROV-1
[12] = system: SN12C
[13] = system: M14
[14] = system: 786-0
[15] = system: A498
[16] = system: HL-60
[17] = system: RXF 393
[18] = system: OVCAR-5
[19] = system: SK-MEL-2
[20] = system: NCI-H23

Row | Compound | GI50 [1] | GI50 [2] | GI50 [3] | GI50 [4] | GI50 [5] | GI50 [6] | GI50 [7] | GI50 [8] | GI50 [9] | GI50 [10] | GI50 [11] | GI50 [12] | GI50 [13] | GI50 [14] | GI50 [15] | GI50 [16] | GI50 [17] | GI50 [18] | GI50 [19] | GI50 [20]
1 | Cc1cc(C)c2c(=N)c3ccccc3n(CCCCCCCCn3c4ccccc4c(=N)c4c(C)cc(C)nc43)c2n1 | 1.38 µM (inactive) | 0.596 µM (active) | 1.46 µM (inactive) | 1.75 µM (inactive) | 1.26 µM (inactive) | 1.85 µM (inactive) | 0.627 µM (active) | 1.47 µM (inactive) | 1.56 µM (inactive) | 1.55 µM (inactive) | 1.33 µM (inactive) | 1.59 µM (inactive) | 1.66 µM (inactive) | 0.931 µM (active) | 1.59 µM (inactive) | 0.433 µM (active) | 1.32 µM (inactive) | 1.89 µM (inactive) | 1.75 µM (inactive) | 1.46 µM (inactive)
2 | CCCC1=C(OC)C(=O)c2c(C)cc(Cl)nc2C1=O | 13.6 µM (inactive) | 7.62 µM (inactive) | 13.5 µM (inactive) | 6.53 µM (inactive) | 5.79 µM (inactive) | 13.6 µM (inactive) | 6.37 µM (inactive) | 7.93 µM (inactive) | 6.92 µM (inactive) | 16.7 µM (inactive) | 11.7 µM (inactive) | 4.14 µM (inactive) | 7 µM (inactive) | 2.37 µM (inactive) | 20.2 µM (inactive) | 1.45 µM (inactive) | 7.67 µM (inactive) | 14.5 µM (inactive) | 10.5 µM (inactive) | 4.11 µM (inactive)
3 | Cc1cc2c(O)nc(N)nc2nc1C | > 100 µM (inactive) | > 100 µM (inactive) | > 100 µM (inactive) | > 100 µM (inactive) | > 100 µM (inactive) | > 100 µM (inactive) | > 100 µM (inactive) | > 100 µM (inactive) | > 100 µM (inactive) | > 100 µM (inactive) | > 100 µM (inactive) | > 100 µM (inactive) | > 100 µM (inactive) | > 100 µM (inactive) | > 100 µM (inactive) | > 100 µM (inactive) | > 100 µM (inactive) | > 100 µM (inactive) | > 100 µM (inactive) | > 100 µM (inactive)
4 | O=C(O)/C=C/c1c2ccc(=O)c(O)c-2oc2c(O)c(O)ccc12 | 32.3 µM (inactive) | 48 µM (inactive) | 33.9 µM (inactive) | > 100 µM (inactive) | > 100 µM (inactive) | 83.9 µM (inactive) | 30.3 µM (inactive) | > 100 µM (inactive) | 30.8 µM (inactive) | 70.8 µM (inactive) | 82.6 µM (inactive) | 15.3 µM (inactive) | 47.4 µM (inactive) | 18.9 µM (inactive) | > 100 µM (inactive) | 82.2 µM (inactive) | > 100 µM (inactive) | 78.2 µM (inactive) | 55.1 µM (inactive) | > 100 µM (inactive)
5 | CN(C)C(=S)S [SODIUM DIMETHYLCARBAMODITHIOATE] | > 100 µM (inactive) | > 85.5 µM (inactive) | 56.4 µM (inactive) | > 100 µM (inactive) | > 100 µM (inactive) | > 100 µM (inactive) | 36.9 µM (inactive) | 27.9 µM (inactive) | > 71 µM (inactive) | > 100 µM (inactive) | 2.23 µM (inactive) | 80 µM (inactive) | > 100 µM (inactive) | > 70 µM (inactive) | > 100 µM (inactive) | 1.33 µM (inactive) | 83.9 µM (inactive) | > 100 µM (inactive) | 18.1 µM (inactive) | > 50.8 µM (inactive)
6 | C/C=C(/C)C(=O)O[C@H]1[C@H](O)CC(c2ccc3c(c2O)C(=O)C2=C(O)C4(OC)C(=O)C(C(N)=O)=C(O)[C@H](CC(=O)c5ccccc5O)C4CC2[C@@]3(C)OC)O[C@@H]1C (stereo not given in full) | 0.00311 µM (active) | 0.0198 µM (active) | 0.041 µM (active) | 0.0165 µM (active) | 0.0218 µM (active) | 0.0187 µM (active) | 0.0849 µM (active) | 0.0104 µM (active) | 0.00418 µM (active) | 0.0202 µM (active) | 0.00577 µM (active) | 0.00297 µM (active) | 0.0213 µM (active) | 0.00479 µM (active) | 0.0422 µM (active) | 0.0248 µM (active) | 0.0198 µM (active) | 0.0546 µM (active) | 0.00621 µM (active) | 0.00711 µM (active)
7 | CCCCCCOc1ccc(C(=O)NO)cc1 | 14.3 µM (inactive) | 13.4 µM (inactive) | 6.08 µM (inactive) | 22.8 µM (inactive) | 13.9 µM (inactive) | 15.8 µM (inactive) | 5.74 µM (inactive) | 9.51 µM (inactive) | 5.07 µM (inactive) | 9.46 µM (inactive) | 3.61 µM (inactive) | 10.2 µM (inactive) | 11.9 µM (inactive) | 3.68 µM (inactive) | 13 µM (inactive) | 1.81 µM (inactive) | 11.3 µM (inactive) | 11.6 µM (inactive) | 12.4 µM (inactive) | 7.03 µM (inactive)
8 | C=C(CCC(=O)N(CCc1c[nH]c2ccccc12)C(=O)c1ccccc1CSCC)C(=O)OC | 27.1 µM (inactive) | > 83.8 µM (inactive) | 27.7 µM (inactive) | 35.3 µM (inactive) | 40.6 µM (inactive) | 71.9 µM (inactive) | 50 µM (inactive) | 20.9 µM (inactive) | 31.9 µM (inactive) | 53.7 µM (inactive) | 60.1 µM (inactive) | 30.3 µM (inactive) | 44.6 µM (inactive) | 50 µM (inactive) | 49.2 µM (inactive) | 3.46 µM (inactive) | > 47.5 µM (inactive) | > 100 µM (inactive) | 48.6 µM (inactive) | 31.9 µM (inactive)
9 | Cc1nc2c(-c3ccccc3)[nH]c(C)c2c(=O)o1 | 65.2 µM (inactive) | 23.9 µM (inactive) | 4.94 µM (inactive) | > 100 µM (inactive) | > 100 µM (inactive) | 24.8 µM (inactive) | 70.1 µM (inactive) | 58.3 µM (inactive) | 43.8 µM (inactive) | 87.5 µM (inactive) | 80.5 µM (inactive) | > 100 µM (inactive) | 53.1 µM (inactive) | 61.8 µM (inactive) | 22.1 µM (inactive) | 15.7 µM (inactive) | 35.9 µM (inactive) | > 100 µM (inactive) | 46.7 µM (inactive) | 57.7 µM (inactive)
10 | O=[N+]([O-])c1c(F)c(F)c2c(c1F)Nc1ccccc1S2 | 19.2 µM (inactive) | 17.3 µM (inactive) | 18.2 µM (inactive) | 1.49 µM (inactive) | 15.2 µM (inactive) | 11 µM (inactive) | 2.58 µM (inactive) | 13.9 µM (inactive) | 15.7 µM (inactive) | 16.9 µM (inactive) | 3.08 µM (inactive) | 3.38 µM (inactive) | 3.64 µM (inactive) | 8.24 µM (inactive) | 16.4 µM (inactive) | 4.29 µM (inactive) | 2.25 µM (inactive) | 13 µM (inactive) | 2.14 µM (inactive) | 2.63 µM (inactive)
11 | N#Cc1c(N)[nH]c2ccc(Sc3ccccc3)cc12 | 0.282 µM (active) | 0.624 µM (active) | 0.236 µM (active) | 12.8 µM (inactive) | 1.78 µM (inactive) | 1.16 µM (inactive) | 0.675 µM (active) | 0.323 µM (active) | 0.284 µM (active) | 0.457 µM (active) | 0.198 µM (active) | 0.574 µM (active) | 0.0828 µM (active) | 0.152 µM (active) | 0.196 µM (active) | 0.0333 µM (active) | 0.208 µM (active) | 0.964 µM (active) | 0.338 µM (active) | 0.323 µM (active)
12 | CCc1c(-c2ccc(OC)cc2)c(=O)oc2cc(O)ccc12 | 27.3 µM (inactive) | 73.3 µM (inactive) | 19.9 µM (inactive) | 25.9 µM (inactive) | 75.9 µM (inactive) | 25.1 µM (inactive) | 33.8 µM (inactive) | 28.2 µM (inactive) | 27.7 µM (inactive) | 56.6 µM (inactive) | 42.4 µM (inactive) | 35.9 µM (inactive) | 23.9 µM (inactive) | 51.2 µM (inactive) | 22.6 µM (inactive) | 16.7 µM (inactive) | 54.5 µM (inactive) | > 100 µM (inactive) | > 100 µM (inactive) | 49.1 µM (inactive)
